The values that follow come from the OligoGym collection.

HELM strings list units from the 5' end as sugar, base in round brackets, then linkage (d deoxyribose, r ribose, m 2'-O-methyl, p phosphodiester). Strings are as the collection lists them; they lack the last nucleoside at the 3' end of the tested compound. [moe] = 2'-O-(2-methoxyethyl) (MOE); [sp] = phosphorothioate linkage; [m5C] = 5-methylcytosine

This data set deals with ATXN2. Description: mouse, dose not given. The conditions noted are these: ASO.

“RNA1{[moe]([m5C])[sp].[moe](T)p.[moe]([m5C])p.[moe](T)p.[moe]([m5C])[sp].d([m5C])[sp].d(A)[sp].d(T)[sp].d(T)[sp].d(A)[sp].d(T)[sp].d(T)[sp].d(T)[sp].d([m5C])[sp].d(T)[sp].[moe](T)p.[moe]([m5C])p.[moe](A)[sp].[moe]([m5C])}$$$$ (last 3' nucleoside missing)” came in with a 3 h FOB score of 5.75 score 0-7.

“RNA1{[moe]([m5C])[sp].[moe](G)p.[moe](T)p.[moe](A)p.[moe](T)p.d(G)[sp].d(T)[sp].d(T)[sp].d(T)[sp].d(G)[sp].d(T)[sp].d([m5C])[sp].d(T)[sp].d(G)[sp].d(T)[sp].[moe]([m5C])p.[moe](T)p.[moe](T)[sp].[moe](A)}$$$$ (last 3' nucleoside missing)” came in with a 3 h FOB score of 6.25 score 0-7.

Take “RNA1{[moe](T)[sp].[moe](T)p.[moe](G)p.[moe]([m5C])p.[moe](A)p.d([m5C])[sp].d(A)[sp].d(T)[sp].d(A)[sp].d(G)[sp].d(G)[sp].d(T)[sp].d(T)[sp].d(A)[sp].d(G)[sp].[moe](A)p.[moe](A)p.[moe](T)[sp].[moe](T)}$$$$ (last 3' nucleoside missing)”: the 3 h FOB score worked out at 6.5 score 0-7.

With “RNA1{[moe](A)[sp].[moe](T)p.[moe](T)p.[moe]([m5C])p.[moe](T)[sp].d(G)[sp].d(T)[sp].d(A)[sp].d([m5C])[sp].d(T)[sp].d(T)[sp].d(T)[sp].d(T)[sp].[moe]([m5C])p.[moe](T)p.[moe]([m5C])[sp].[moe](A)}$$$$ (last 3' nucleoside missing)”, the 3 h FOB score came to 0 score 0-7.

“RNA1{[moe]([m5C])[sp].[moe](T)p.[moe](G)p.[moe]([m5C])p.[moe](T)[sp].d(A)[sp].d(A)[sp].d([m5C])[sp].d(T)[sp].d(G)[sp].d(G)[sp].d(T)[sp].d(T)[sp].[moe](T)p.[moe](G)p.[moe]([m5C])[sp].[moe]([m5C])}$$$$ (last 3' nucleoside missing)”: the 3 h FOB score stood at 4 score 0-7.

Take “RNA1{[moe](G)[sp].[moe](T)p.[moe](A)p.[moe]([m5C])p.[moe](T)[sp].d(T)[sp].d([m5C])[sp].d(A)[sp].d([m5C])[sp].d(A)[sp].d(T)[sp].d(T)[sp].d(T)[sp].[moe](G)p.[moe](G)p.[moe](A)[sp].[moe](G)}$$$$ (last 3' nucleoside missing)”: the 3 h FOB score was 1 score 0-7.

The substance “RNA1{[moe]([m5C])[sp].[moe](A)p.[moe](G)p.[moe](T)p.[moe](G)p.d([m5C])[sp].d([m5C])[sp].d(T)[sp].d(T)[sp].d(T)[sp].d(A)[sp].d([m5C])[sp].d([m5C])[sp].d([m5C])[sp].d([m5C])[sp].[moe](T)p.[moe](T)p.[moe](G)[sp].[moe](A)}$$$$ (last 3' nucleoside missing)” registered a 3 h FOB score of 5.25 score 0-7.

For the substance “RNA1{[moe](G)[sp].[moe](G)p.[moe](T)p.[moe](A)p.[moe](A)p.d([m5C])[sp].d(A)[sp].d(G)[sp].d([m5C])[sp].d(T)[sp].d([m5C])[sp].d(T)[sp].d(G)[sp].d(T)[sp].d(T)[sp].[moe]([m5C])p.[moe](G)p.[moe](A)[sp].[moe](T)}$$$$ (last 3' nucleoside missing)”, the 3 h FOB score was 7 score 0-7.

“RNA1{[moe]([m5C])[sp].[moe](T)p.[moe](T)p.[moe]([m5C])p.[moe](T)p.d([m5C])[sp].d(T)[sp].d(A)[sp].d(T)[sp].d(T)[sp].d(T)[sp].d([m5C])[sp].d(T)[sp].d(T)[sp].d(T)[sp].[moe](G)p.[moe](T)p.[moe]([m5C])[sp].[moe]([m5C])}$$$$ (last 3' nucleoside missing)” yielded a 3 h FOB score of 1 score 0-7.

Take “RNA1{[moe](T)[sp].[moe](T)p.[moe](A)p.[moe](G)p.[moe](G)p.d([m5C])[sp].d(T)[sp].d(A)[sp].d(G)[sp].d(G)[sp].d([m5C])[sp].d(A)[sp].d([m5C])[sp].d(A)[sp].d(T)[sp].[moe](G)p.[moe](G)p.[moe](A)[sp].[moe](G)}$$$$ (last 3' nucleoside missing)”: the 3 h FOB score is 5.25 score 0-7.
